Assay results from patent publication US8956648B2, “Calciumphosphate-based nanoparticles as carrier-systems for photodynamic therapy” (Biolitec PharmaMarketing Ltd, priority 2008, dated 2015).

Tested on: human colon adenocarcinoma cell line HT29
Assay: Photodynamic cell test on HT29 tumor cell line (XTT viability after laser irradiation)
Assay type: cell-based
Conditions: HT29 cells, 24 h incubation, 652 nm diode laser 50 J cm^−2, XTT assay
Description: The photosensitizing activity was determined in the human colon adenocarcinoma cell line HT29. The HT29 cell lines were grown in DMEM (cc-pro GmbH) supplemented with 10% heat-inactivated fetal calf serum (FCS, cc-pro GmbH), 1% penicillin (10000 IU) and streptomycin (10,000 μg ml^−1, cc-pro GmbH). Cells were kept as a monolayer culture in a humidified incubator (5% CO2 in air at 37° C.).
A stock solution of the nanoparticle formulation was kept in the dark at 4° C. Further dilution was performed in RPMI 1640 medium without phenol red supplemented with 10% FCS to reach a final photosensitizer concentration of 2 or 10 μM, respectively.
2-10^4 cells ml^−1 were seeded in micro plates ([…]). Cells were incubated with fresh medium (RPMI without phenol red) containing 10% FCS with 2 or 10 μM of the photosensitizer for 24 h before light exposure. Before photosensitization, cells were washed, incubated with RPMI without phenol red and 10% FCS, then irradiated at room temperature with a 652 nm diode laser (Ceralas PDT 652, biolitec AG) at a fixed fluence rate of 100 mW cm^−2 (50 J cm^−2). […]
The cell viability was assessed by the XTT assay. […]
The absorbance of the samples was measured with a spectrophotometer (Tecan Infinite 200, Tecan Group Ltd.) at a wavelength of 490 nm. In order to measure reference absorbance (to measure non-specific readings) a wavelength of 630-690 nm was used. […]

In the case of `O=P(O)(O)Oc1ccc(-c2c3nc(c(-c4ccc(OP(=O)(O)O)cc4)c4ccc([nH]4)c(-c4ccc(OP(=O)(O)O)cc4)c4nc(c(-c5ccc(OP(=O)(O)O)cc5)c5ccc2[nH]5)C=C4)C=C3)cc1` [pTPPP, 5,10,15,20-tetrakis(4-phosphonooxyphenyl)porphine], the photodynamic activity is reported as “no photodynamic activity”.
